According to patent US20160263189A1, “TREATMENT OF A NEURODEGENERATIVE DISEASE OR DISORDER” (ACADIA Pharmaceuticals Inc., priority 2013, published 2016):

Experiments:
Ret = Ret immunolabeling in the SNc of 6OHDA-lesioned rats; type: in vivo, Sprague-Dawley rats; details: 1 mg/kg/day subcutaneously for 28 days starting 3 days after bilateral 6OHDA infusion into the SNc
Description: Sprague-Dawley rats received saline infusions (denoted sham) or bilateral infusions of 6OHDA into the SNc (denoted lesion) as described (McFarland et al., 2013). […] A), RET positive cells expressed as % of sham; B), sham; C), vehicle treated lesioned animals; D) bexarotene treated lesioned animals. Shown are representative images of substantia nigral tissue immunolabeled for Ret.

[1] = tested on: primary cultures of dopaminergic neurons previously exposed to alpha-synuclein (α-syn); assay: TH positive neurons in primary cultures of dopaminergic neurons exposed to alpha-synuclein; type: cell-based, rat; details: for increase in TH positive neurons over the α-synuclein alone condition: α-synuclein peptide 250 nM, 96 h; for survival of TH positive neurons compared to the control condition: neurons treated with alpha-synuclein
Description: Cultured neurons were treated as described above. On day 7, the media was removed, and fresh media with the α-synuclein peptide (250 nM) was added. On day 8, the media was removed, and fresh media with the α-synuclein peptide (250 nM) and the indicated drug treatments was added.
Cultured neurons were treated with alpha-synuclein as described above.

[2] = tested on: primary cultures of dopaminergic neurons previously exposed to MPP+; assay: TH positive neurons in primary cultures of dopaminergic neurons after MPP+ injury

C=C(c1ccc(C(=O)O)cc1)c1cc2c(cc1C)C(C)(C)CCC2(C)C [bexarotene, Bexarotene]
RET expression relative to sham animals (Ret): increased RET expression above the levels in the sham animals
RET positive cells in the SNc (expressed as % of sham) (Ret; vs Lesion/Veh, p<0.05): reversed the loss of RET positive cells
increase in TH positive neurons over the α-synuclein alone condition ([1]; bexarotene alone 10 nM): 8%
survival of TH positive neurons compared to the control condition ([1]; bexarotene alone 100 nM): 88%
increase in TH positive neurons over the MPP alone condition ([2]; 5 nM bexarotene alone): 9%
% of TH positive cells compared to cells treated with MPP+ alone ([2]; 0.3, 1 or 3 nM bexarotene alone, 24 h MPP+ injury (4 μM), drugs for 48 h): not able to significantly increase

B1: GDNF: glial-cell-line-derived neurotrophic factor, a trophic factor (protein, UniProt P39905 78-211, looked up)
Glial cell line-derived …: SPDKQMAVLPRRERNRQAAAANPENSRGKGRRGQRGKNRGCVLTAIHLNVTDLGLGYETKEELIFRYCSGSCDAAETTYDKILKNLSRNRRLVSDKVGQACCRPIAFDDDLSFLDDNLVYHILRKHSAKRCGCI
increase in TH positive neurons over the α-synuclein alone condition ([1]; GDNF alone 12.5 ng/ml): 8%
survival of TH positive neurons compared to the control condition ([1]; GDNF alone 100 ng/ml): 96%
increase in TH positive neurons over the MPP alone condition ([2]; 2 ng/ml GDNF alone): 3%
